In brackets after ≈: the same amount, converted by molar mass.
Legend:
physchem [1] = settings: pH 7.4 buffer
in vitro [2] = settings: human
in vitro [3] = settings: human, hepatocytes
in vitro [4] = settings: hepatocytes
physchem [5] = settings: octan-1-ol/water, pH 7.4, LogD7.4
in vitro [6] = settings: SD, HW or BN, rat, plasma
in vitro [7] = settings: human, plasma, PPB

Structure (SMILES)	solubility thermodynamic (physchem [1]) [µM]	microsomal CLint (in vitro [2]; liver microsomes) [µL/min/mg]	hepatocyte CLint (in vitro [3]) [µL/min/1e6 cells]	hepatocyte CLint (in vitro [4]) [µL/min/1e6 cells]	logD (physchem [5])	microsomal CLint (in vitro [2]; microsomes) [µL/min/mg]	fraction unbound at 5 h (in vitro [6])	fraction unbound at 5 h (in vitro [7])
O=C(O[C@H]1C[N+]2(CCCOc3ccccc3)CCC1CC2)C(O)(c1cccs1)c1cccs1	339	140	64	80	–	–	–	–
CCC(=O)N[C@H]1CC[C@@H](C(=O)N(C)c2ccc(-c3nc4ccccc4o3)cc2)C1 [BI 99179]	45.7 (≈ 17.9 µg/mL)	–	4.57	7.59	3.4	11	–	–
O=c1[nH]c2c(O)ccc([C@@H](O)CNCCc3ccc(CNCCc4ccccn4)cc3)c2s1	–	–	< 3	–	-0.25	–	0.483	–
CN(C)CCCOc1nn(Cc2ccccc2)c2ccccc12 [BENZYDAMINE]	–	–	7.76	> 150	2.4	17.8	–	–
COc1ccccc1-c1csc(-n2ncc(C#N)c2N)n1	–	–	55	–	–	–	0.529	0.591
CCN1CCN(c2ccc(Nc3cc(N(C)C(=O)Nc4c(Cl)c(OC)cc(OC)c4Cl)ncn3)cc2)CC1 [INFIGRATINIB]	0.5 (≈ 0.28 µg/mL)	–	28.8	87.1	3.7	–	–	–
O=C(O)CCc1ccc(OCc2cccc(Br)c2)cc1	–	< 3	129	> 150	1.67	–	–	–
Cc1nn(C)c2cc(N3CCN(C(=O)[C@@H]4CCCC[C@H]4C(=O)NC4(C#N)CC4)[C@H](C)C3)ccc12	–	–	7.41	8.13	–	–	–	–
NC1(c2ccc(-c3nn4ccnc4cc3-c3ccccc3)cc2)CCC1	–	–	7.76	> 150	–	–	–	–
CCS(=O)(=O)CCCC12CCC(c3nnc(-c4ccccc4C(F)(F)F)n3C)(CC1)CC2 [MK-0736]	–	< 3	< 3	< 3	–	–	–	–
C[C@H]1C[C@@H]2[C@H]([C@@H](O)C[C@@]3(C)[C@H]2CC[C@]3(O)C(=O)CO)[C@@]2(C)C=CC(=O)C=C12 [METHYLPREDNISOLONE]	–	–	9.12	> 150	2.12	–	–	0.201
O=c1[nH]c2ccccc2n1C1CCN(Cc2ccc(-c3nc4ccccc4cc3-c3ccccc3)cc2)CC1	–	–	< 3	35.5	–	–	–	–
C[C@H](CO)Nc1nc(SCc2ccccc2F)nc2nc(N)sc12	–	–	5.75	19	3.12	8.13	–	–
CCC[C@H](CO)Nc1nc(S[C@@H](C)c2cccc(C#N)c2)nc2[nH]c(=O)sc12	–	52.5	22.4	–	3.7	–	0.0008	0.0007
Cn1sc(=O)c2cc(S(N)(=O)=O)ccc21	–	–	27.5	17.4	0.3	–	–	–
C=CC(=O)Nc1cccc(Oc2nc(Nc3ccc(N4CCN(C)CC4)cc3OC)ncc2Cl)c1	1 (≈ 0.495 µg/mL)	–	3.31	79.4	3.9	–	–	–
O=C(Nc1cc(-c2ccnc(Nc3ccccc3)c2)ccn1)C1CCOCC1	–	12.6	16.2	> 150	3.7	–	–	–
CC1Cc2ccccc2N1NC(=O)c1ccc(Cl)c(S(N)(=O)=O)c1 (stereo unspecified) [INDAPAMIDE]	151 (≈ 55.4 µg/mL)	–	4.9	13.2	1.83	–	–	0.204
CC(CO)(CO)Nc1nc(SCc2cccc(F)c2F)nc2nc(N)sc12	–	–	4.92	7	2.87	–	–	0.129
COC(=O)C1=C(C)NC(C)=C(C(=O)OC(C)C)[C@@H]1c1cccc2nonc12 [(R)-ISRADIPINE]	–	–	126	> 150	3.77	–	–	–
Cc1oncc1C(=O)Nc1ccc(C(F)(F)F)cc1 [LEFLUNOMIDE]	67.6 (≈ 18.3 µg/mL)	–	< 3	24	3.9	–	–	–
O=c1[nH]c2c(O)ccc([C@@H](O)CNCCc3cccc(CNCCc4c(Cl)cccc4Cl)c3)c2s1	–	63	5.17	78	3.15	–	–	–

Structure (SMILES)	solubility thermodynamic (physchem [1]) [µM]	microsomal CLint (in vitro [2]; liver microsomes) [µL/min/mg]	hepatocyte CLint (in vitro [3]) [µL/min/1e6 cells]	hepatocyte CLint (in vitro [4]) [µL/min/1e6 cells]	logD (physchem [5])	microsomal CLint (in vitro [2]; microsomes) [µL/min/mg]	fraction unbound at 5 h (in vitro [6])	fraction unbound at 5 h (in vitro [7])
COC(=O)c1ccc(C)c(NS(=O)(=O)c2ccc3c(c2)c(=O)sn3C)c1	–	–	> 150	> 150	2.6	–	–	–
C#Cc1cccc(Nc2ncnc3cc4c(cc23)OCCOCCOCCO4)c1 [ICOTINIB]	–	–	3.55	21.9	–	–	–	–
C=CCc1ccccc1OCC(O)CNC(C)C (stereo unspecified) [ALPRENOLOL]	–	–	13.2	> 150	0.99	–	–	–
CCOc1ccc2ccc(=O)oc2c1 [ETHOXYCOUMARIN]	1000 (≈ 190 µg/mL)	–	35.5	64.6	2.2	–	–	–
CNC(=O)c1ccc(C)c(-n2c(C)cc(OCc3ccc(F)cc3F)c(Br)c2=O)c1 [PH-797804]	21.4 (≈ 10.2 µg/mL)	–	< 3	–	2.8	–	0.0183	–
O=C(CCCc1ccc2cccnc2n1)NCc1cc(-c2ccc(F)c(C(F)(F)F)c2)no1	–	–	19.9	–	–	–	0.0119	0.0009
N#CCC(CNc1ncc(C(F)(F)F)cc1Cl)OC(=O)c1c(F)cccc1F (stereo unspecified)	–	> 150	> 150	> 150	–	–	–	–
NC1(c2ccc(-c3nc4ccccn4c3-c3ccccc3)cc2)CCC1	–	–	18.2	> 150	–	–	–	–
NC1(c2ccc(-c3ncc4nccn4c3-c3ccccc3)cc2)CCC1	–	–	< 3	16.2	–	–	–	–
Cc1ccc(NC(=O)c2cccc(N(C)S(C)(=O)=O)c2)cc1NC(=O)c1ccc2ncccc2c1	–	–	< 3	72.4	–	–	–	–
O=C(O)COc1ccc(C(F)(F)F)cc1CN1CCN(S(=O)(=O)c2ccccc2)CC1	–	6.33	< 3	< 3	–	–	–	–
O=C(Nc1nc2ccccc2s1)c1ccccc1	–	–	77.6	64.6	–	> 150	–	–
COc1ccccc1Oc1c(NS(=O)(=O)c2ccc(C(C)(C)C)cc2)nc(-c2ncccn2)nc1OCCO [BOSENTAN]	–	15.1	4.79	–	1.03	–	0.0122	0.013
CCCCNC(=O)NS(=O)(=O)c1ccc(C)cc1 [TOLBUTAMIDE]	–	–	6.31	6.61	–	6.31	–	–
O=S(=O)(Nc1ccc2sc(CO)nc2c1)c1ccc(Br)cc1	–	–	24.6	–	–	–	0.0018	–
CC1CNC(Nc2c(Cl)cccc2Cl)=N1 (stereo unspecified)	–	–	< 3	–	–	–	0.64	–
COc1ccccc1OCCNCC(O)COc1cccc2[nH]c3ccccc3c12 (stereo unspecified) [CARVEDILOL]	–	–	26.3	–	–	41.7	0.0262	–
CCOC(=O)/C=C/[C@H](C[C@@H]1CCNC1=O)NC(=O)[C@@H](CC(=O)[C@@H](NC(=O)c1cc(C)on1)C(C)C)Cc1ccc(F)cc1	–	105	40.7	> 150	2.8	–	–	–
CS(=O)(=O)N1CCc2c(-c3cnc(N)nc3)nc(N3CCOCC3)nc21 [IZORLISIB]	1.7 (≈ 0.642 µg/mL)	–	< 3	5.37	1.2	–	–	–
CCc1cccc2cc(C(O)CNC(C)(C)C)oc12 (stereo unspecified) [BUFURALOL]	–	–	8.71	> 150	–	–	–	0.0801
N#Cc1ccc(OC2CCN(C[C@H](O)CNC(=O)c3c[nH]c(=O)c4ccccc34)CC2)cc1Cl	–	–	< 3	15	2.56	–	–	0.197
CO[C@H]1C[C@@H]2CC[C@@H](C)[C@@](O)(O2)C(=O)C(=O)N2CCCC[C@H]2C(=O)O[C@H]([C@H](C)C[C@@H]2CC[C@@H](O)[C@H](OC)C2)CC(=O)[C@H](C)/C=C(\C)[C@@H](O)[C@@H](OC)C(=O)[C@H](C)C[C@H](C)/C=C/C=C/C=C/1C [SIROLIMUS]	–	–	50.1	> 150	–	–	–	–
